Among the data in US7211574B2, “Selective D1/D5 receptor antagonists for the treatment of obesity and CNS disorders” (Schering Corporation, priority 2002, dated 2007) are Ki values, retold here.

Assay [1] deals with T1, human D1 receptor (Homo sapiens, UniProt P21728).
T1 construct: expressed in transfected cells; host or cells: Ltk- cells (mouse fibroblast line), membrane preparation
Nature of the assay: radioligand binding competition assay, D1. The method, then: (§1) Affinity values (Ki) of compounds at human D1 and D2 receptors were ascertained using radioligand binding competition assays. Ltk- cells expressing D1 and D2 (long variant) receptors were lysed in hypotonic buffer for membrane preparation. Membranes were incubated with various concentrations of test compound and 1 nM [3H] of a compound of formula III and 0.2 nM [3H] Methylspiperone for D1 and D2 assays, respectively. Non-specific binding was defined as binding in the presence of 10 micromolar of a compound of formula III for D1 assays and 10 micromolar butaclamol for […]. Following incubation to equilibrium (1 hour at room temperature), bound radioligand was separated from free by rapid filtration. Bound radioactivity on the dried filters was quantified by liquid scintillation counting.

Assay [2] concerns the target T2, human D2 (long variant) receptor (Homo sapiens, UniProt P14416).
T2 construct: expressed in transfected cells; host or cells: Ltk- cells (mouse fibroblast line), membrane preparation
Nature of the assay: radioligand binding competition assay, D2. Particulars: membranes of Ltk- cells expressing D2 (long variant); 0.2 nM [3H] Methylspiperone; 1 hour at room temperature. The method, then: as §1

The mark [3] stands for this setting: membranes of Ltk- cells expressing D1, 1 nM [3H] compound of formula III, 1 hour at room temperature, read-out: D1 (Ki).

Structures are written as SMILES. Read-outs that look alike come from different tables or passages of the source.

T1 sequence (P21728 whole entry): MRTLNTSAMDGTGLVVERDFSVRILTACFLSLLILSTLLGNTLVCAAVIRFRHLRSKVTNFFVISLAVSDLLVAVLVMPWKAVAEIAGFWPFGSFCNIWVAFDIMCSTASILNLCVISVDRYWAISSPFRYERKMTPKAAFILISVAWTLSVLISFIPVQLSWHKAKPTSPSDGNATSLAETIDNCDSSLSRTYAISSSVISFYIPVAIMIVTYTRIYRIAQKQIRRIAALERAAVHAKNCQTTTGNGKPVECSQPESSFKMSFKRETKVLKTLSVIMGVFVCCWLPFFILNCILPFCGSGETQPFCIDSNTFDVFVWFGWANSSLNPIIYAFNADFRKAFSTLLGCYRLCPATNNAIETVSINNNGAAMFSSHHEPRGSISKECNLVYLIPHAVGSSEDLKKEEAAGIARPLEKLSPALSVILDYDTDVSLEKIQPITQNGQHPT

The term Ki denotes a dissociation constant, usually derived from enzyme kinetics or from competition with a known ligand. Consider `Cc1cc2c3c(cc(Cl)c2[nH]1)CCN(C)[C@H]1CCc2ccccc2[C@H]31` [Compound 8], for which the Ki in assay [1] came to 0.0247 µM; in assay [2] it was 0.232 µM. As for `CN1CCc2cc(Cl)c3[nH]cnc3c2[C@H]2c3ccccc3CC[C@@H]21` [Compound 13A], the Ki in assay [1] (setting [3]) was 0.248 µM; in assay [2], 0.984 µM. Regarding `CN1CCc2cc(Cl)c3[nH]c(O)nc3c2[C@@H](c2ccccc2)C1` [Compound 16B], the Ki in assay [1] (setting [3]) was found to be 0.35 µM. Turning to `O=c1[nH]c2c(Cl)cc3c(c2s1)[C@H]1c2ccccc2CC[C@@H]1NCC3` [Compound 26A], the figures for the Ki in assay [1] and in assay [2] were 0.0065 µM and 0.661 µM, respectively. As for `CN1CCc2cc(Cl)c3[nH]c(=O)[nH]c3c2[C@H]2c3cccc(Br)c3CC[C@@H]21` [Compound 16C], the Ki in assay [1] (setting [3]) was 0.0061 µM; in assay [2] it was 0.172 µM. For `CN1CCc2cc(Cl)c3[nH]ncc3c2[C@@H](c2ccccc2)C1` [Compound 4], in that order: 0.014 µM and 3.55 µM. For `O=c1[nH]c2c(Cl)cc3c(c2s1)[C@@H](c1ccccc1)CNCC3` [Compound 26B] the same measures were 1.08 µM and 3.2 µM. For the compound `Oc1nc2c(Cl)cc3c(c2[nH]1)[C@H]1c2ccccc2CC[C@@H]1NCC3` [Compound 18A], the figures for the Ki in assay [1] and in assay [2] were 0.0165 µM and 3.27 µM, respectively. With `O=c1[nH]c2c(Cl)cc3c(c2[nH]1)[C@H]1c2cccc(Br)c2CC[C@@H]1NCC3` [Compound 18C], the Ki is 0.0113 µM in assay [1] (setting [3]) and 0.648 µM in assay [2]. For `CN1CCc2cc(Cl)c3nc(O)sc3c2[C@@H](c2ccccc2)C1` [Compound 25B] the same measures were 0.115 µM and 2.89 µM. On to `CN1CCc2cc(Cl)c3[nH]c(O)nc3c2[C@H]2c3ccccc3CC[C@@H]21` [Compound 16A], for which the Ki is 0.007 µM in assay [1] and 1.02 µM in assay [2]. With `Clc1cc2c(c3cn[nH]c13)[C@@H](c1ccccc1)CNCC2` [Compound 6], the Ki in assay [1] (setting [3]) stood at 0.183 µM; in assay [2], 5.01 µM. For `CN1CCc2cc(Cl)c3[nH]nnc3c2[C@H]2c3ccccc3CC[C@@H]21` [Compound 15A], in that order: 0.146 µM and 1.53 µM. As to `CN1CCc2cc(Cl)c3[nH]c(=O)sc3c2[C@H]2c3ccccc3CC[C@@H]21` [Compound 25A], the Ki in assay [1] is 0.0021 µM; in assay [2] it was 0.257 µM. Regarding `Oc1nc2c(Cl)cc3c(c2[nH]1)[C@@H](c1ccccc1)CNCC3` [Compound 18B], the Ki in assay [1] (setting [3]) was determined as 1.9 µM. Turning to `CN1CCc2cc(Cl)c3[nH]c(=S)[nH]c3c2[C@H]2c3ccccc3CC[C@@H]21` [Compound 17A], the Ki was determined as 0.04 µM in assay [1] and 1.04 µM in assay [2].

With `CN1CCc2cc(Cl)c3[nH]c(=S)[nH]c3c2[C@@H](c2ccccc2)C1` [Compound 17B], the Ki in assay [1] (setting [3]) worked out at 1.79 µM. As for `CN1CCc2cc(Cl)c3[nH]c(=O)[nH]c3c2[C@H]2c3cccc(-c4ccccc4)c3CC[C@@H]21` [Compound 27], the Ki in assay [1] (setting [3]) stood at 0.0019 µM; in assay [2], 0.336 µM.
